Source: patent US12128131B2, “Treatment of epithelial cysts by intracystic injection of antineoplastic particles” (CRITITECH, INC., priority 2017, dated 2024)

Assay: Solubility in the Receptor Fluid (60/40 methanol/water, pH 4)
Type: physicochemical
Conditions: 60 vol. %/40 vol % methanol/water at pH 4 with 0.01 wt % NaN3
Description: Receptor Fluid: The receptor fluid consisted of 60 vol. %/40 vol % methanol/water at pH 4 with 0.01 wt % NaN3 (added as a preservative). […] After mixing and degassing the Receptor Fluid it was filtered through a ZapCap CR 0.2 μm membrane under vacuum; the Receptor Fluid, so filtered, was stirred for an additional 20 minutes under vacuum.

In the case of CC(=O)O[C@@]12CO[C@@H]1C[C@H](O)[C@@]1(C)C(=O)[C@H](O)C3=C(C)[C@@H](OC(=O)[C@H](O)[C@@H](NC(=O)OC(C)(C)C)c4ccccc4)C[C@@](O)([C@@H](OC(=O)c4ccccc4)[C@H]21)C3(C)C [Docetaxel Raw Material, docetaxel], the “solubility in the Receptor Fluid” value is reported as “sufficient to maintain sink conditions”.
